Patent US5294611A, “Angiotensin II receptor blocking 2,3,6 substituted quinazolinones” (American Cyanamid Company, priority 1993, dated 1994)

What follows are compounds tested against T1, Angiotensin II Receptor (Bos taurus, UniProt P25104) (assay: Receptor Binding Assay: displacement of [^125 I](Sar^1,Ile^8)AngII from adrenal cortex microsomal membranes).
T1 construct: The brownish tissue forming the adrenal cortex is scraped off and finely minced with scissors before homogenization; tissue local slaughter house (maxwell-Cohen); host or cells: beef adrenal cortex, 100,000 x g microsomal membranes
T1 sequence (P25104 1-359): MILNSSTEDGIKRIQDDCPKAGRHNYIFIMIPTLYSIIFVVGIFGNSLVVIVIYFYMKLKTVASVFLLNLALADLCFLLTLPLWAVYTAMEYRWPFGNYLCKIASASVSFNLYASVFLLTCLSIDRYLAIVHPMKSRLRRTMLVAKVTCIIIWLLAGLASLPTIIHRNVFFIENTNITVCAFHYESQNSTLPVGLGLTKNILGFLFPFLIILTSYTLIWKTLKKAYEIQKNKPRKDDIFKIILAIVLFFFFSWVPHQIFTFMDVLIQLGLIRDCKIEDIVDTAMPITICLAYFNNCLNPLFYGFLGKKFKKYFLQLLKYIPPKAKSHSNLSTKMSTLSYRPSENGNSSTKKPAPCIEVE
Set-up: species or system beef (bovine adrenals)
Text: Beef adrenals are obtained from a local slaughter house (maxwell-Cohen). [^125 I](Sar^1,Ile^8)AngII, S.A. 2200 Ci/mmole, is purchased from Dupont (NEN®, Boston, Mass.). All unlabeled AngII analogs, Dimethylsulfoxide (DMSO), nucleotides, bovine serum albumin (BSA) are purchased from Sigma Chemical Co., St. Louis, Mo. U.S.A.
Approximately sixteen (16) to twenty (20) beef adrenal glands are processed as follows: fresh adrenal glands received on crushed ice are cleaned of fatty tissues and the tough membranes encapsulating the glands are removed and discarded. The brownish tissue forming the adrenal cortex is scraped off and finely minced with scissors before homogenization. Care is taken to avoid contamination with medullary tissue during dissection. The scraped cortices are suspended in twenty volumes of an ice-cold buffer medium consisting of 10 mM Tris.HCl (pH 7.4 at 22° C.) and containing 1.0 mM EDTA and 0.2M sucrose. Unless otherwise indicated, all subsequent operations are done at 4° C. […] The homogenate is centrifuged first at low speed (3,000× g) for 10 min. The resulting pellet is discarded and the supernatant fluid recentrifuged at 10,000× g for 15 minutes to give a P2 pellet. This P2 pellet is discarded and the liquid phase is carefully decanted off in clean centrifuge tubes and recentrifuged at high speed (100,000× g) for 60 min. The translucent final pellet is harvested and combined in a small volume (20-50.0 ml) of 50.0 mM Tris.HCl buffer, pH 7.2. A 100 ul aliquot is withdrawn and the protein content of the preparation is determined by the Lowry's method (Lowry, O. H., Rosebrough, N. F., Parr, A. L. and Randall, R. J., Protein measurement with Folin phenol reagent. J. Biol. Chem., 48, 265-275; 1951). The pelleted membrane is reconstituted in 50.0 mM Tris.HCl buffer containing 0.1 mM of phenylmethylsulfonyl fluoride (PMSF) to give approximately a protein concentration of 2.5 mg per ml of tissue suspension. The membrane preparation is finally aliquoted in 1.0 ml volumes and stored at -70° C. until use in the binding assays.
The binding of [^125 I](Sar^1,Ile^8)AngII to microsomal membranes is initiated by the addition of reconstituted membranes (1:10 vols.) in freshly made 50.0 mM Tris.HCl buffer, pH 7.4 containing 0.25% heat inactivated bovine serum albumin (BSA): 80 ul membrane protein (10 to 20 ug/assay) to wells already containing 100 ul of incubation buffer (as described above) and 20 ul [^125 I](Sar^1,ILE^8)AngII (Specific Activity, 2200 Ci/mmole). Non-specific binding is measured in the presence of 1.0 uM unlabeled (Sar^1,ILE^8)AngII, added in 20 ul volume. […] In competition studies, experimental compounds are diluted in dimethylsulfoxide (DMSO) and added in 20 ul to wells before the introduction of tissue membranes. […] Assays are performed in triplicate. The wells are left undisturbed for 60 min. at room temperature. Following incubation, all wells are harvested at once with a Brandel® Harvester especially designed for a 96 well plate (Brandel® Biomedical Research & Development Labs. Inc., Gaithersburg, Md., U.S.A.). The filter discs are washed with 10×1.0 ml of cold 0.9% NaCl to remove unbound ligand. […] This method is routinely used. The filters are removed from the filter grid and counted in a Parkard® Cobra Gamma Counter for 1 min. (Packard Instrument Co., Downers Grove, Ill., U.S.A.). The binding data are analyzed by the non-linear interactive "LUNDON-1" program (LUNDON SOFTWARE Inc., Cleveland, Ohio U.S.A.).

SMILES | IC50
CCCCc1nc2ccc([C@H]3[C@@H]4C(=O)CC[C@@H]4ON3C)cc2c(=O)n1Cc1ccc(-c2ccccc2-c2nnn[nH]2)cc1 (relative stereo) [Example 48] | 57 nM
CCCCc1nc2ccc([C@@H]3[C@H]4C(=O)CCC[C@H]4ON3C)cc2c(=O)n1Cc1ccc(-c2ccccc2-c2nnn[nH]2)cc1 (relative stereo) [Example 49] | 880 nM
CCCCc1nc2ccc([C@H]3[C@@H]4C(=O)OC[C@@H]4ON3C)cc2c(=O)n1Cc1ccc(-c2ccccc2-c2nnn[nH]2)cc1 (relative stereo) [Example 53] | 71 nM
CCCCc1nc2ccc([C@H]3[C@@H]4C(=O)CC[C@@H]4ON3Cc3ccccc3)cc2c(=O)n1Cc1ccc(-c2ccccc2-c2nnn[nH]2)cc1 (relative stereo) [Example 55] | 78 nM
CCCCc1nc2ccc([C@H]3[C@@H]4C(=O)OC[C@@H]4ON3Cc3ccccc3)cc2c(=O)n1Cc1ccc(-c2ccccc2-c2nnn[nH]2)cc1 (relative stereo) [Example 57] | 180 nM
CCCCc1nc2ccc([C@H]3[C@@H]4C5CCC(C5)[C@@H]4ON3C)cc2c(=O)n1Cc1ccc(-c2ccccc2-c2nnn[nH]2)cc1 (stereo partly drawn) [Example 51] | 150 nM
